Reference: ChEMBL document CHEMBL2390918, “Cinnamides as selective small-molecule inhibitors of a cellular model of breast cancer stem cells” (Bioorg Med Chem Lett, 2013)
In brackets after ≈: the same amount, converted by molar mass.

Columns and labels:
[1] = target: B1 bradykinin receptor (Homo sapiens) (UniProt P46663); test: Displacement of [3H](Des-Arg10)-Kallidin from bradykinin B1 receptor in human IMR90 cells at 10 uM after 60 mins relative to control; assay type: cell-based; details: IMR-90
[2] = target: Muscarinic acetylcholine receptor M1 (Homo sapiens, UniProt P11229); test: Displacement of [3H]N-methylscopolamine from human recombinant muscarinic M1 receptor expressed in CHOK1 cells after 2 hrs; assay type: cell-based, CHO-K1
[3] = target: Muscarinic acetylcholine receptor M1 (Homo sapiens) (UniProt P11229); test: Displacement of [3H]N-methylscopolamine from human recombinant muscarinic M1 receptor expressed in CHOK1 cells at 10 uM after 2 hrs relative to control; assay type: cell-based; details: CHO-K1
[4] = target: Muscarinic acetylcholine receptor M3 (Homo sapiens) (UniProt P20309); details: CHO-K1, 10 uM
[5] = target: Muscarinic acetylcholine receptor M2 (Homo sapiens) (UniProt P08172); details: CHO-K1, 10 uM
[6] = Displacement of [3H]Nitrendipine from L-type calcium channel dihydropyridine binding site in Wistar rat cerebral cortex after 90 mins; assay type: tissue-based
Rattus norvegicus [7] = organism: Rattus norvegicus; test: Displacement of [3H]Nitrendipine from L-type calcium channel dihydropyridine binding site in Wistar rat cerebral cortex at 10 uM after 90 mins relative to control; assay type: tissue-based
[8] = target: B2 bradykinin receptor (Homo sapiens) (UniProt P30411); details: CHEM1, 10 uM
[9] = target: Adenosine receptor A3 (Homo sapiens) (UniProt P0DMS8); details: CHO-K1, 10 uM
[10] = Displacement of [125I]omega-Conotoxin GVIA from N-type calcium channel in Wistar rat frontal brain after 30 mins
Rattus norvegicus [11] = organism: Rattus norvegicus; test: Displacement of [125I]omega-Conotoxin GVIA from N-type calcium channel in Wistar rat frontal brain at 10 uM after 30 mins relative to control
[12] = target: Adenosine receptor A1 (Homo sapiens) (UniProt P30542); details: CHO, 10 uM
[13] = Chemical stability in DMSO after 48 hrs; assay type: physicochemical; details: read-out: Stability
[14] = Chemical stability of the compound after 48 hrs in presence of GSH; assay type: physicochemical; details: read-out: Stability
[15] = Metabolic stability in human plasma after 5 hrs; assay type: ADME, cell-free; details: read-out: Stability
[16] = Chemical stability of the compound in PBS after 48 hrs at pH 7.4 by UPLC/MS analysis; assay type: physicochemical; details: read-out: Stability
[17] = Solubility in PBS at 100 uM after 24 hrs at pH 7.4 by UPLC-MS analysis; assay type: physicochemical
[18] = Plasma protein binding in human; assay type: ADME, cell-free; details: read-out: PPB (converted)
[19] = Selectivity ratio of EC50 for human HMLE cells expressing shRNA and GFP to EC50 for human CSC-like HMLE cells expressing shRNA and epithelial cadherin; assay type: ADME, cell-based; details: read-out: Ratio EC50
[20] = Cytotoxicity against human HMLE cells expressing shRNA and GFP after 70 to 74 hrs by Cell Titer Glo assay; assay type: cell-based
[21] = Cytotoxicity against human CSC-like HMLE cells expressing shRNA and epithelial cadherin after 70 to 74 hrs by Cell Titer Glo assay; assay type: functional, cell-based

Chain of B1 bradykinin receptor (Homo sapiens) (P46663 whole entry): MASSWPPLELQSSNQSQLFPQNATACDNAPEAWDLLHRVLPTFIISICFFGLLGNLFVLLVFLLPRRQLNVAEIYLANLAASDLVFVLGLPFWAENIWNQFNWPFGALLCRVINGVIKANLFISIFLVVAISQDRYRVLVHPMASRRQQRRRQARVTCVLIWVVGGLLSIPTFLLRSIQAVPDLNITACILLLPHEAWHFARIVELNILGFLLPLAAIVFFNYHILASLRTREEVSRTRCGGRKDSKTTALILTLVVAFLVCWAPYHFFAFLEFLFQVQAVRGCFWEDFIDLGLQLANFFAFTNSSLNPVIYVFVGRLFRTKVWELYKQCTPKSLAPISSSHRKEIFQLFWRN
Chain of Adenosine receptor A1 (Homo sapiens) (P30542 whole entry): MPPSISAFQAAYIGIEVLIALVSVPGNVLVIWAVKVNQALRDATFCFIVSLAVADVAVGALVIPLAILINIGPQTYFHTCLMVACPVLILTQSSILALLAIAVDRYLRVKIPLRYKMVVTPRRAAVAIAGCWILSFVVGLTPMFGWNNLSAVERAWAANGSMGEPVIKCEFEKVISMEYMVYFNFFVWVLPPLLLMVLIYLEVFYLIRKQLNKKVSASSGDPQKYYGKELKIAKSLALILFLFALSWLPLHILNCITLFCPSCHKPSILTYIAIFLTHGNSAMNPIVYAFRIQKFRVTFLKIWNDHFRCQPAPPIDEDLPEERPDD
Chain of B2 bradykinin receptor (Homo sapiens) (P30411 whole entry): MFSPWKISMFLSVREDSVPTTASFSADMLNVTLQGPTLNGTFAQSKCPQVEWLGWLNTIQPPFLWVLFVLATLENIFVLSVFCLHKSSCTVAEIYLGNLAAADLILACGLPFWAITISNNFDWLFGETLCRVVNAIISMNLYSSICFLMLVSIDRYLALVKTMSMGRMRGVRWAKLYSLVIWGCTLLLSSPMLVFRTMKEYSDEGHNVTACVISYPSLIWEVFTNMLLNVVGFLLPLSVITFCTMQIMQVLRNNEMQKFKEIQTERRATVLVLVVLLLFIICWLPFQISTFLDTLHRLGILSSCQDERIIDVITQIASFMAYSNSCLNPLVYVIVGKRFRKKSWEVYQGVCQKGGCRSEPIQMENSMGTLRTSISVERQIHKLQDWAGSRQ
Chain of Muscarinic acetylcholine receptor M3 (Homo sapiens) (P20309 whole entry, looked up): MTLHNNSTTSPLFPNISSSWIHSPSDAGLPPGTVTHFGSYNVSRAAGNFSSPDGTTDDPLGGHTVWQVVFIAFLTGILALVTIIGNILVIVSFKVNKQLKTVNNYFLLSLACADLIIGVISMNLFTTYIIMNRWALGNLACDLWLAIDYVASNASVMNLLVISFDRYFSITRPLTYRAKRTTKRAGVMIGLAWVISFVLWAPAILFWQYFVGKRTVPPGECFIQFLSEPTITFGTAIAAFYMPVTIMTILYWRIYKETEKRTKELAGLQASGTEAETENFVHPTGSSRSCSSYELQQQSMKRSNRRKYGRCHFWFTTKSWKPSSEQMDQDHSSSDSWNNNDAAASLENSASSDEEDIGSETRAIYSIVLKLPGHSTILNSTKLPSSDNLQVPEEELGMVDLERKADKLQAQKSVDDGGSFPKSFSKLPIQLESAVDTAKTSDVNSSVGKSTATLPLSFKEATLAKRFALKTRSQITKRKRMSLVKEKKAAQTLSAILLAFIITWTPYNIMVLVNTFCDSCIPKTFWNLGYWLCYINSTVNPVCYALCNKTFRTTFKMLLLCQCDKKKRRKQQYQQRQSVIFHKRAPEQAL
Chain of Muscarinic acetylcholine receptor M2 (Homo sapiens) (P08172 whole entry): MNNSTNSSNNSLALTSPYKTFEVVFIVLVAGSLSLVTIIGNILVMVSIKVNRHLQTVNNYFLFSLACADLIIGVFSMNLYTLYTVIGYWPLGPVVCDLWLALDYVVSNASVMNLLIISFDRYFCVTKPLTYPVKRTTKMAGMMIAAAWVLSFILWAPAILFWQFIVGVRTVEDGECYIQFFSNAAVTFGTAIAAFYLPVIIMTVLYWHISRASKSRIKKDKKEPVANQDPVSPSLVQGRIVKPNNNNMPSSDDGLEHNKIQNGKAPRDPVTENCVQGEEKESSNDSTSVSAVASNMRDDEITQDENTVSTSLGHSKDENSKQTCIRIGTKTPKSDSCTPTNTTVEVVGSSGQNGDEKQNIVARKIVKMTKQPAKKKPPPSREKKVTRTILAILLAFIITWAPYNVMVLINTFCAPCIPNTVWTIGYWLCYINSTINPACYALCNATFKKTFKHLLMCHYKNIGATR
Chain of Adenosine receptor A3 (Homo sapiens) (P0DMS8 whole entry): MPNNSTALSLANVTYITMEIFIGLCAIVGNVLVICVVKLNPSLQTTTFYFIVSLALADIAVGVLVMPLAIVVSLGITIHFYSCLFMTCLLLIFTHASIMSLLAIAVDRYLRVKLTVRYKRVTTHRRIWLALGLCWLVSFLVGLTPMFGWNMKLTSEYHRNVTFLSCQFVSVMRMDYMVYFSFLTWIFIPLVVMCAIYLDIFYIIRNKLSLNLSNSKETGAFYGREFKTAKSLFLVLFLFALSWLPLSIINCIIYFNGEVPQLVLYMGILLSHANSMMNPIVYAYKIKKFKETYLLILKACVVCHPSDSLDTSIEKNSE
Chain of Muscarinic acetylcholine receptor M1 (P11229 whole entry): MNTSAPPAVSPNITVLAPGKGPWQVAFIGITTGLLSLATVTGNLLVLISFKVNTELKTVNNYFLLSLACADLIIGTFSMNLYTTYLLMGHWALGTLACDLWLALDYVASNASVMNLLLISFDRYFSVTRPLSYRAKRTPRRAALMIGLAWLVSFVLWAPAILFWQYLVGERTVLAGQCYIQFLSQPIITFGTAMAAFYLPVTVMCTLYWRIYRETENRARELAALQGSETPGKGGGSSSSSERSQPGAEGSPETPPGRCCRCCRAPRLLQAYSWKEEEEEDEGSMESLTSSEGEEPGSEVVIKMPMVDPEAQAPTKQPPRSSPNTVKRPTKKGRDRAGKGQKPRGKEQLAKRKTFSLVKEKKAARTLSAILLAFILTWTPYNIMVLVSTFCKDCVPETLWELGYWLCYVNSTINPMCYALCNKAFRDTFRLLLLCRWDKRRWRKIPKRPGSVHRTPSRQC
Chain of Muscarinic acetylcholine receptor M1 (Homo sapiens) (P11229 whole entry): as above

With `NCCCC[C@H](N)C(=O)N[C@@H](CCCN=C(N)N)C(=O)N1CCC[C@H]1C(=O)N1CCC[C@H]1C(=O)NCC(=O)N[C@@H](Cc1ccccc1)C(=O)N[C@@H](CO)C(=O)N1CCC[C@H]1C(=O)N[C@@H](Cc1ccccc1)C(=O)O` as the molecule, how does the inhibition [1] read?
Its inhibition is 8%.

Which IC50 [2] does the source give for `C[N+]1(C)CCC(OC(=O)C(c2ccccc2)c2ccccc2)CC1` [4-DAMP] here?
Its IC50 is 4.5 nM.

What about the inhibition [3] of the same molecule?
The inhibition was 5%.

What about the inhibition [4] of the same molecule?
The inhibition was -4%.

And the inhibition [5]?
Its inhibition is -2%.

With `CCOC(=O)C1=C(C)NC(C)=C(C(=O)OC)C1c1cccc([N+](=O)[O-])c1` (stereo not drawn) [NITRENDIPINE] as the molecule, how does the IC50 [6] read?
Its IC50 is 0.72 nM.

And the Ki [6]?
The Ki was 0.46 nM.

And the inhibition (Rattus norvegicus [7])?
The inhibition was -6%.

For H-RPPGFSPFR-OH, which inhibition [8] is on record?
The inhibition was 4%.

With `CNC(=O)[C@H]1O[C@@H](n2cnc3c(NCc4cccc(I)c4)ncnc32)[C@H](O)[C@@H]1O` as the molecule, how does the inhibition [9] read?
Its inhibition is 22%.

Which IC50 [10] does the source give for `C[C@@H](O)[C@@H]1NC(=O)[C@H](Cc2ccc(O)cc2)NC(=O)[C@@H]2C[C@@H](O)CN2C(=O)[C@H](CC(N)=O)NC(=O)[C@@H]2CSSC[C@@H]3NC(=O)[C@H](CO)NC(=O)[C@H](CO)NC(=O)CNC(=O)[C@@H]4C[C@@H](O)CN4C(=O)[C@H](CO)NC(=O)[C@H](CCCCN)NC(=O)[C@@H](N)CSSC[C@H](NC(=O)[C@H](CSSC[C@@H](C(=O)N[C@@H](Cc4ccc(O)cc4)C(N)=O)NC(=O)[C@H](CCCNC(=N)N)NC(=O)[C@H](CCCCN)NC1=O)NC(=O)[C@H](CC(N)=O)NC(=O)[C@H](Cc1ccc(O)cc1)NC(=O)[C@H](CO)NC(=O)[C@H]([C@@H](C)O)NC(=O)[C@@H]1C[C@@H](O)CN1C(=O)[C@H](CO)NC3=O)C(=O)N[C@@H](CCCNC(=N)N)C(=O)N[C@@H](CO)C(=O)N2` here?
Its IC50 is 0.034 nM.

And the Ki [10]?
Its Ki is 0.028 nM.

And the inhibition (Rattus norvegicus [11])?
Its inhibition is 14%.

With `C[C@H](Cc1ccccc1)Nc1ncnc2c1ncn2[C@@H]1O[C@H](CO)[C@@H](O)[C@H]1O` as the molecule, how does the inhibition [12] read?
Its inhibition is 25%.

What does the source list for `CCc1ccc(/C=C/C(=O)NC2=NCCS2)cc1`?
remaining at 48 h [13]: > 75%; remaining at 48 h [14]: 82%; remaining at 5 h [15]: 97.1%; remaining at 48 h [16]: 75%; solubility at 24 h, 100 µM [17]: 11.5 µM (≈ 2.99 µg/mL); fraction unbound [18]: 0.034; selectivity ratio [19]: 32; EC50 [20]: 64000 nM; EC50 [21]: 2000 nM
